In patent EP0433074B1, “Method for treating cardiac malfunction” (THE GENERAL HOSPITAL CORPORATION, priority 1989, dated 1991):

Experiments:
[1] = tested on: rat abdominal aortic rings; experiment: Vascular tension in isolated aortic rings; parameters: species or system Sprague-Dawley rats; conditions: KCl 20 mM; above resting tension of 1.5 g
Experimental: Experiments were conducted to determine the vasoconstrictive properties of HIF. The protocol for these experiments is described in greater detail in Example V. In general, Sprague-Dawley rats were anesthetized and the abdominal aorta surgically removed. 2 mm vascular rings were attached to a force transducer and bathed in buffer, and tension adjusted to 1.5 g. Tissue viability was documented and vasoconstrictive responses calibrated using known vasoconstrictors such as potassium chloride and norepinephrine. Blood vessels thus prepared were then tested with varing doses of HIF.
Sprague-Dawley rats weighing 250-350 grams were anesthetized with pentobarbital intraperitoneally, the abdominal aorta rapidly excised and dissected free of all loose connective tissue in cold Krebs-Henseleit bicarbonate buffer of the following composition, mM: NaCl, 118.3; KCl, 4.7; MgSo₄, 1.2; KH₂PO₄, 1.2; CaCl₂, 2.5; NaHCO₃, 25.0; Na-EDTA, 0.016; and glucose, 11.1. 2-3 mm (length) vascular rings were excised, attached to a force transducer and bathed in a water jacketed (37°C) organ chamber containing 5 ml of the above buffer gassed with 95% O₂ and 5% CO₂. […] force measurements were obtained with a Grass force displacement transducer attached to a Grass 79D polygraph DC amplifier, and recorded with a two-channel Kipp Zonen recorder. […]

[2] = tested on: cardiac myocytes; experiment: Myocyte contractility (amplitude of systolic motion, beating frequency), phase contrast video motion detector; type: cell-based, rat
Experimental: In general, the amplitude of contraction (i.e., degree of positive inotropy) was measured in single, beating myocytes as the amplitude of systolic motion (ASM) using a phase contrast video motion detector system. The same detector system was used to measure toxicity, which is evidenced as a decrease in ASM, a change in the position of maximal relaxation (MR), and an increase in beating frequency.
(§1) Myocardial cells were isolated from ventrical fragments of the hearts of 1-day old Sprague-Dawley rats by serial trypsinizations in a Ca²⁺ and Mg²⁺-free Hanks Buffered Salt Solution (HBSS) as previously described (Yagev, S., et al., In Vitro, 20:893-898 (1984)). Trypsinized cells were decanted into HamF10 medium containing 20% serum and antibiotics and centrifuged at 1000 r.p.m. for 10 minutes. The cell pellet was resuspended in HamF10 medium containing fetal calf serum and 10% horse serum with 0.1% penicillin-streptomycin, and diluted to a concentration of 5 x 10⁵ cells/ml. For measurements of cytosolic free calcium concentration ([Ca²⁺]i), the cells were plated on rectangular glass coverslips (13 x 30 mm) and for measurements of cell contractility, plated on circular glass coverslips (12 mm), and both types of coverslips placed inside petri dishes. For measurements of ⁸⁶Rb⁺ uptake cells were plated in petri dishes (1 - 1.5 x 10⁶ cells/35mm dish). All cultures were incubated in humidified 5% CO₂, 95% air at 37°C.
Contractility, determined as amplitude of systolic cell motion (ASM), and beating frequency were measured in individual cells using a phase contrast microscope video motion detector system according to the method of Barry, et al. (Barry, W.H., et al., Circ. Res., 56:231-241 (1985)). A glass coverslip with attached cultured myocytes was placed in a chamber provided with inlet and exit ports for medium perfusion. The chamber was enclosed in a Lucite box at 37°C and placed on the stage of an inverted phase contrast microscope. The cells were covered with 1 ml medium containing HIF or ouabain. During continuous perfusion, medium bathing a cell in the center of a coverslip exchanged with a time constant of 15 seconds at a flow rate of 0.96 ml/minutes. Image was magnified using a 40x objective, and motion monitored by a low-light-level TV camera attached to the microscope and calibrated with 262 raster lines. […] The analog voltage output from the motion detector is filtered at low pass filter and calibrated to indicate actual um of motion, and the derivative is obtained electronically and recorded as velocity of motion in um/sec. […] The changes in contractility induced by ouabain or HIF were calculated in comparison with the contractility of the same cells before addition of ouabain or HIF.

[3] = tested on: cultured cardiac myocytes; experiment: Cytosolic free Ca²⁺ measured with fura-2 in cultured cardiac myocytes; type: cell-based, rat; conditions: ouabain 10^-6 M, steady state, control 138±3
Experimental: as §1, with “For measurements of ⁸⁶Rb⁺ uptake cells were plated in petri dishes (1 - 1.5 x 10⁶ cells/35mm dish). All cultures were incubated in humidified 5% CO₂, 95% air at 37°C.” left out
Changes in [Ca²⁺] i were detected using the fluorescent probe, fura-2 (Grynkiewicz, G., et al., J. Biol. Chem., 260:3440-3450 (1985)). […] The fluorescence was continuously recorded using a PTI DeltaScan 1 spectrofluorometer. […] Values of [Ca²⁺]i were calculated from the ratio R = F₃₄₀/F₃₈₀ [formula] […] Rmax and Rmin were determined in separate experiments using digitonin to equilibrate [Ca²⁺]i with ambient [Ca²⁺] […] Background autofluorescence was measured in unloaded cells and substracted from all measurements.

[4] = tested on: neonatal rat cardiac myocytes; experiment: ⁸⁶Rb⁺ influx (Na⁺ pump activity) in cultured cardiac cells; type: cell-based; conditions: ouabain 5 mM, 20 min preincubation
Experimental: Na⁺ pump activity was estimated in the cultured cardiac cells as the difference in ⁸⁶Rb⁺ uptake observed in the absence and presence of 5 mM ouabain, following the method of Panet et al (Panet, R., et al., J. Memb. Biol., 70:165-169 (1982)). To insure saturation binding, myocytes were preincubated for 20 minutes with HIF (2 unit/ml) or ouabain (5 mM) or both prior to addition of ⁸⁶Rb⁺ to run the 10 minute flux. Myocyte monolayers were washed with HEPES buffer solution (final concentrations, mM: NaCl 150, RbCl 5, HEPES-Tris 10 (pH7.0) , CaCl₂ 1, MgCl₂ 5, glucose 10), and the uptake initiated by covering over with 0.5 ml of same solution pre-warmed to 37°C and containing 2 uCi ⁸⁶RbCl. […] The cells were lysed with 0.6 ml of 0.1 N NaOH containing 0.1% (w/v) sodium dodecylsulfate, and the radioactivity counted in Instagel (Packard) scintillation medium.
The concentration dependence of HIF inhibition was determined by preincubating cells with HIF at 0.5 units/ml, 0.8 units/ml, 1 unit/ml, 2 units/ml and 4 units/ml concentration for 20 min. ⁸⁶RbCl (2 uCi/well) was then added to run the flux.

Compound	Change in Tension in Rat Aorta, % increase [1]	activation at 0.5 µM ([2]; Rattus norvegicus, ouabain 5x10^-7 M, read-out: ASM, % increase)	inhibition at 0.5 µM ([2]; Rattus norvegicus, ouabain 5x10^-7 M, read-out: Rate, % decrease)	toxicity on contracting myocytes (decrease in ASM, elevation in position of MR, increase in beating frequency) ([2]; ouabain 1 uM)	ASM, % increase ([2]; ouabain 5x10^-7 M, listed as Ou)	[Ca²⁺]i [3]	[Ca²⁺]i ([3]; listed as Ouabain)	inhibition at 5000 µM ([4]; Rattus norvegicus, read-out: decrease of total ⁸⁶Rb⁺ uptake)	total ⁸⁶Rb⁺ uptake ([4]; 10 min flux, control 810 nmol/mg protein)
[Cl-].[K+] [KCl, potassium chloride]	20%								
C[C@@H]1O[C@@H](O[C@H]2C[C@@H](O)[C@]3(CO)[C@H]4[C@H](O)C[C@]5(C)[C@@H](C6=CC(=O)OC6)CC[C@]5(O)[C@@H]4CC[C@]3(O)C2)[C@H](O)[C@H](O)[C@H]1O [ouabain]		41%	23 ± 2%	toxic range	41±3%	287 ± 15 nM	287 ± 15 nM	74%	210 nmol/mg
